Measured values published in ChEMBL document CHEMBL1154947, “Discovery of N-(5,6-diarylpyridin-2-yl)amide derivatives as potent and selective A(2B) adenosine receptor antagonists” (Bioorg Med Chem Lett, 2010).
pKi: −log10 of the molar value.

How the values were obtained:
[1] = molecular target: T1, Adenosine receptor A2a (Homo sapiens, UniProt P29274); assay: Displacement of [3H]ZM241385 from human adenosine A2A receptor expressed in human HeLa cells after 1 hr by scintillation proximity assay; assay type: cell-based
[2] = molecular target: T2, Adenosine receptor A3 (Homo sapiens, UniProt P0DMS8); assay: Displacement of [3H]NECA from human adenosine A3 receptor expressed in human HeLa cells after 3 hrs by filtration binding assay; assay type: cell-based
T2 sequence (P0DMS8 whole entry): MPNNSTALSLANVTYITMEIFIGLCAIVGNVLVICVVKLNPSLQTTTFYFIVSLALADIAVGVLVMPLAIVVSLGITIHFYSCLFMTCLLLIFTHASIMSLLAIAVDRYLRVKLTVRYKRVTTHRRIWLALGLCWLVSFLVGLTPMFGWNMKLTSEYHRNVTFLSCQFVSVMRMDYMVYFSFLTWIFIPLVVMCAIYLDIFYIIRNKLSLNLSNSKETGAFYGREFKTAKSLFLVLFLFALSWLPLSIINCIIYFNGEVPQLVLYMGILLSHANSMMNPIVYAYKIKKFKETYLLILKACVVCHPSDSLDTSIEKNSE

[3] = molecular target: T3, Adenosine receptor A2b (Homo sapiens, UniProt P29275); assay: biochemical
T3 sequence (P29275 whole entry): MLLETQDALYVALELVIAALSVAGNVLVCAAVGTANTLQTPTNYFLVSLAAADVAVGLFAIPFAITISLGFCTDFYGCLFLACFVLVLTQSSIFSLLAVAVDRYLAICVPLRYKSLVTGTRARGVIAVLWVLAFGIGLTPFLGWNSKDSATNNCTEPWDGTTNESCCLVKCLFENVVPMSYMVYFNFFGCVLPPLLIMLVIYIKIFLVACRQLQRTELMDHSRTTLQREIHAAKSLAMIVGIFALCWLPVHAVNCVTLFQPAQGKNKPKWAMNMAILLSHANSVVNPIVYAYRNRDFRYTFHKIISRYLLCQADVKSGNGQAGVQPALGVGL
Description: Displacement of [3H]DPCPX from human adenosine A2B receptor expressed in HEK293 cells after 60 mins by filtration binding assay

[4] = molecular target: T4, Adenosine receptor A1 (Homo sapiens, UniProt P30542); assay: biochemical
T4 sequence (P30542 whole entry): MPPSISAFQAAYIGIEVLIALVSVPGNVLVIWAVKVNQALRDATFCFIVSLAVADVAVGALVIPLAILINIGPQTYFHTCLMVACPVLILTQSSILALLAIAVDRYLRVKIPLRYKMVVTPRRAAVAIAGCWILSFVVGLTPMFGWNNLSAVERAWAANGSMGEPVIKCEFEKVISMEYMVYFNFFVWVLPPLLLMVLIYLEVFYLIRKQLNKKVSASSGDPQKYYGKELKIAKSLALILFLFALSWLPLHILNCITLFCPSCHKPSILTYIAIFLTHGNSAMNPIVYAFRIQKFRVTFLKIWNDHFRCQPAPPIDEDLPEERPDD
Description: Displacement of [3H]DPCPX from human adenosine A1 receptor expressed in CHO cells after 90 mins by filtration binding assay

[5] = molecular target: T5, Adenosine receptor A2b (Homo sapiens) (UniProt P29275); assay: Inhibition of [3H]DPCPX binding to human adenosine A2B receptor expressed in HEK293 cells at 1 uM after 60 mins by filtration binding assay; assay type: cell-based
T5 sequence (whole entry): T3 sequence (P29275 whole entry)

[6] = molecular target: T1, Adenosine receptor A2a; assay: Inhibition of [3H]ZM241385 binding to human adenosine A2A receptor expressed in human HeLa cells at 1 uM after 1 hr by scintillation proximity assay; assay type: cell-based
[7] = molecular target: T6, Adenosine receptor A1 (Homo sapiens) (UniProt P30542); assay: Inhibition of [3H]DPCPX binding to human adenosine A1 receptor expressed in CHO cells at 1 uM after 90 mins by filtration binding assay; assay type: cell-based
T6 sequence (whole entry): T4 sequence (P30542 whole entry)

[8] = molecular target: T7, Adenosine receptor A3 (Homo sapiens) (UniProt P0DMS8); assay: Inhibition of [3H]NECA binding to human adenosine A3 receptor expressed in human HeLa cells at 1 uM after 3 hrs by filtration binding assay; assay type: cell-based
T7 sequence (whole entry): T2 sequence (P0DMS8 whole entry)

[9] = Metabolic stability in rat liver microsomes assessed as turnover at 5 uM after 30 mins in absence of NADPH; assay type: ADME, Microsome; details: read-out: Activity
[10] = Metabolic stability in human liver microsomes assessed as turnover at 5 uM after 30 mins in absence of NADPH; assay type: ADME, Microsome; details: read-out: Activity
[11] = Metabolic stability in human liver microsomes assessed as turnover at 5 uM after 30 mins in presence of NADPH; assay type: ADME, Microsome; details: read-out: Activity
[12] = Terminal half life in rat at 1 mg/kg, iv; assay type: ADME, organism-based; parameters: dose 1 mg/kg, route intravenous; details: in vivo, read-out: beta t1/2 (converted)
[13] = Cmax in rat at 1 mg/kg, iv; assay type: ADME, organism-based; parameters: dose 1 mg/kg, route intravenous; details: in vivo
[14] = Clearance in rat at 1 mg/kg, iv; assay type: ADME, organism-based; parameters: dose 1 mg/kg, route intravenous; details: in vivo
[15] = AUC (0 to infinity) in rat at 1 mg/kg, iv; assay type: ADME, organism-based; parameters: time infinity, dose 1 mg/kg, route intravenous; details: plasma
[16] = Volume of distribution at steady state in rat at 1 mg/kg, iv; assay type: ADME, organism-based; parameters: dose 1 mg/kg, route intravenous; details: in vivo, read-out: Vdss
[17] = Metabolic stability in rat liver microsomes assessed as turnover at 5 uM after 30 mins in presence of NADPH; assay type: ADME, Microsome; details: read-out: Activity
[18] = Tmax in rat at 10 mg/kg, po; assay type: ADME, organism-based; parameters: dose 10 mg/kg, route oral; details: in vivo
[19] = Oral bioavailability in rat at 10 mg/kg; assay type: ADME, organism-based; details: in vivo

T1 sequence (P29274 whole entry): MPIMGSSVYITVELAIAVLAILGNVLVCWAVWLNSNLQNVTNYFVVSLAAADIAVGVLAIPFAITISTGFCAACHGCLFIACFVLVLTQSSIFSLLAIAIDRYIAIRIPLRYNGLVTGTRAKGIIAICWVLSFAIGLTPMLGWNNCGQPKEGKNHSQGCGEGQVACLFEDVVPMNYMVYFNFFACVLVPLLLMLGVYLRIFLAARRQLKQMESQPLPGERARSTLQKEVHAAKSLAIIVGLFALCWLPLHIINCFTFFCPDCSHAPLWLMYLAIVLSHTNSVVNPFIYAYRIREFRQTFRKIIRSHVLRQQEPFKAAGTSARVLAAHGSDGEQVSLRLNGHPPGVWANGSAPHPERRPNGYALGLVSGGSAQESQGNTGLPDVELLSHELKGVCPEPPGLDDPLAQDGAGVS

Structure (SMILES) | pKi [1] | pKi [2] | pKi [3] | pKi [4] | inhibition [7] | inhibition [8] | other results
O=C(Nc1ccc(-c2ccncc2)c(-c2ccco2)n1)C1CC1 | 7.52 | 5.87 | 9.00 | 7.09 | – | – | –
O=C(Nc1ccc(-c2ccncc2)cn1)C1CC1 | – | – | – | – | 8% | 7% | inhibition [5]: 29%; inhibition [6]: 2%
O=C(Nc1ccc(-c2ccncc2F)c(-c2ccco2)n1)C1CC1 | 6.82 | – | 9.00 | 6.43 | – | 11% | metabolised at 0.5 h, 5 µM [9]: 99%; metabolised at 0.5 h, 5 µM [10]: 77%
O=C(Nc1ccc(-c2ccncc2)c(-c2ccccn2)n1)C1CC1 | 6.06 | – | 7.33 | 6.03 | – | 2% | metabolised at 0.5 h, 5 µM [11]: 0%; metabolised at 0.5 h, 5 µM [9]: 12%; half-life [12]: 30 min; Cmax [13]: 822 ng/mL; clearance [14]: 35 mL/min/kg; AUC(0-inf) [15]: 485 ng·h/mL; Vd [16]: 1 L/kg
O=C(Nc1ccc(-c2ccncc2)c(-c2cocn2)n1)C1CC1 | 5.86 | – | 6.87 | – | 1% | 12% | –
O=C(Nc1ccc(-c2ccncc2)c(-c2ccncc2)n1)C1CC1 | 6.79 | – | 7.85 | 6.47 | – | 6% | –
O=C(Nc1ccc(-c2ccncc2Cl)c(-c2ccco2)n1)C1CC1 | 6.83 | 5.73 | 8.30 | 6.60 | – | – | –
O=C(Nc1ccc(-c2ccncc2)c(-c2cncs2)n1)C1CC1 | 6.09 | 5.31 | 7.11 | 6.49 | – | – | –
O=C(Nc1ccc(Br)c(-c2ccco2)n1)C1CC1 | 7.46 | 6.21 | 7.55 | 6.55 | – | – | –
CC(=O)Nc1ccc(-c2ccncc2)c(-c2cccc(F)c2)n1 | 6.54 | 6.33 | 7.52 | 7.24 | – | – | –
CC(=O)c1nc(NC(=O)C2CC2)ccc1-c1ccncc1 | – | – | 5.44 | – | 6% | 2% | inhibition [6]: 2%
O=C(Nc1ccc(-c2ccncc2)c(-c2nccs2)n1)C1CC1 | 6.52 | – | 7.38 | 6.04 | – | 11% | –
CC(=O)Nc1ccc(-c2ccncc2)c(-c2ccco2)n1 | 6.68 | 6.48 | 8.15 | 6.45 | – | – | –
O=C(Nc1ccc(-c2ccncc2)c(-c2ccc(F)cc2)n1)C1CC1 | 7.41 | – | 8.40 | 7.46 | – | 27% | –
O=C(Nc1ccc(-c2ccncc2)c(-c2cc[nH]n2)n1)C1CC1 | – | – | 6.69 | – | 3% | 1% | inhibition [6]: 4%
O=C(Nc1ccc(-c2ccncc2)c(-c2cnco2)n1)C1CC1 | 6.20 | – | 7.52 | 6.20 | – | 5% | –
c1cncc(Nc2ncc(-c3ccncn3)c(-c3ccco3)n2)c1 | – | 5.98 | – | 5.55 | – | – | –
O=C(Nc1ccc(-c2ccncc2)c(-c2ccccc2F)n1)C1CC1 | 7.21 | 6.09 | 8.70 | 6.91 | – | – | metabolised at 0.5 h, 5 µM [9]: 100%; metabolised at 0.5 h, 5 µM [10]: 86%
O=C(Nc1ccc(-c2ccncc2)c(-n2cccn2)n1)C1CC1 | 5.84 | – | 7.14 | – | 22% | 2% | –
O=C(Nc1ccc(-c2ccncc2)c(Cl)n1)C1CC1 | – | – | 6.42 | – | 5% | 14% | inhibition [6]: 7%
O=C(Nc1ccc(-c2ccncc2)c(-c2ncco2)n1)C1CC1 | 5.87 | – | 7.49 | 6.15 | – | 22% | metabolised at 0.5 h, 5 µM [17]: 27%; metabolised at 0.5 h, 5 µM [11]: 14%; half-life [12]: 54 min; Cmax [13]: 761 ng/mL; clearance [14]: 31.7 mL/min/kg; AUC(0-inf) [15]: 533 ng·h/mL; Vd [16]: 1.6 L/kg
O=C(Nc1ccc(-c2ccncc2)c(-c2ccncn2)n1)C1CC1 | – | – | 6.68 | – | 3% | 3% | inhibition [6]: 9%
CC(=O)Nc1ccc(-c2ccncn2)c(-c2ccco2)n1 | – | – | 7.33 | – | 7% | 28% | inhibition [6]: 20%
O=C(Nc1ccc(-c2ccncc2)c(-c2cccc(F)c2)n1)C1CC1 | 7.24 | 6.15 | 8.70 | 7.85 | – | – | –
CC(=O)Nc1ncc(-c2ccncn2)c(-c2ccco2)n1 | – | – | 6.42 | – | 2% | 2% | inhibition [6]: 10%
O=C(Nc1ccc(-c2ccncn2)c(-c2ccco2)n1)C1CC1 | 6.62 | 5.43 | 8.40 | 6.03 | – | – | metabolised at 0.5 h, 5 µM [9]: 27%; half-life [12]: 30 min; Cmax [13]: 538 ng/mL; clearance [14]: 63.3 mL/min/kg; AUC(0-inf) [15]: 267 ng·h/mL; Vd [16]: 1.6 L/kg; Tmax [18]: 18 min; bioavailability [19]: 39%
Cc1ccc(-c2nc(NC(=O)C3CC3)ccc2-c2ccncc2)o1 | 7.96 | 6.72 | 8.30 | 7.60 | – | – | –
O=C(Nc1ccc(-c2ccncc2)c(-c2cccnc2)n1)C1CC1 | 5.83 | – | 7.48 | – | 21% | 10% | –
O=C(Nc1ccc(C2N=NN=N2)c(-c2ccco2)n1)C1CC1 | 5.79 | – | – | – | 1% | 8% | inhibition [5]: 23%
N#Cc1ccc(NC(=O)C2CC2)nc1-c1ccco1 | 7.92 | 6.49 | 7.39 | 6.54 | – | – | –
